One series has as its system A. baumannii KB304. The experiment in a line: MIC, microdilution broth. The series is classed as cell-based. The note with it: Acinetobacter baumannii. The method, then:
(§1) E. coli MG1655 and the ΔAcrB strain were obtained from Prof. Cari Vanderpool at UIUC.
(§2) Susceptibility testing was performed in triplicate using the microdilution broth method as outlined by the Clinical and Laboratory Standards Institute CLSI^52. MH broth was used.
(In general: In broth dilution the organism is exposed to a series of concentrations in liquid medium.)

Another series concerns A. baumannii KB349. The experiment in a line: MIC, microdilution broth. In kind it is cell-based. Conditions: Acinetobacter baumannii. The protocol: as §1, §2
The subject of another series is E. coli MG1655. The experiment in a line: microbe, parasite or virus in culture. Conditions: Escherichia coli, gyrA none, parC none. In kind it is cell-based. The method, then:
as §1, §2

The next series concerns E. coli ATCC 25922. In words: microbe, parasite or virus in culture. In kind it is cell-based. The note with it: Escherichia coli, ATCC25922, gyrA none, parC none. The method, then: as §1, §2
A short description of another series: physchem. Conditions: pH 7.4 PBS; three replicates ± SEM. The protocol:
Enough PBS was added to make a 1 mg/mL solution. Compounds were then assessed by LC-MS and compared to a calibration curve to determine the solubility. […] Data shown is from three independent replicates±SEM. […] Between DMSO additions, the vial was vortexed and sonicated.
The compound was vortexed for ˜30 seconds before being placed into a bath sonicator (Cole Parmer, ultrasonic cleaner) for 1 h. […] The tubes were vortexed again for 30 s before being centrifuged at maximum speed (13,000×g) for 10 minutes. The supernatant was then filtered through a 0.22 μm syringe filter (Millipore Millex MP). […] Three independent replicates of each compound were performed. A calibration curve for each compound was generated from 1-400 μM by dissolving the compound in DMSO and making dilutions of the stock in DMSO. […] The concentration of the samples was calculated based on the calibration curves.

The test system of the next series is Enterococcus ATCC 29212. The experiment in a line: organism not typed. Conditions: ATCC 29212, E. faecalis, gyrA WT, parC WT. The series is classed as cell-based, E. faecalis.
Series [1] deals with VRE clinical isolate S234. The experiment in a line: organism not typed. The note with it: read-out: MIC. In kind it is cell-based, E. faecalis.
In another series the test system is FQR MRSA (NRS3). The experiment in a line: Mouse sepsis model, survival. Conditions: 50 mg kg^−1 oral gavage once-a-day 10 days; vs CIP and vehicle, P<0.005.
Series [2] concerns VRE clinical isolate S206. In words: organism not typed. In kind it is cell-based, E. faecalis. The method, then: QRDR mutations were determined as described in the text using primers (primer sequences can be found in Table 7).
as §2

The target of another series is T1, human topoisomerase II (Homo sapiens, UniProt P11388).
T1 construct: purchased Inspiralis
In words: Human topoisomerase decatenation assay. The series is classed as biochemical. The note with it: lowest inhibiting / highest without significant inhibition. The method, then: The decatenation assay was performed with the Human Topo II Decatenation Assay Kit (Inspiralis) according to the manufacturer's instructions with minor modifications. First, a master mix was made containing 2 μL 10× assay buffer (500 mM Tris.HCl, pH 7.5, 1250 mM NaCl, 100 mM MgCl2, 50 mM DTT, 1000 μg/mL albumin), 0.67 μL 30 mM ATP, 1.34 μL 0.1 ng/μL kDNA, and 14.3 μL of nuclease free water per sample is made. DMSO or 30× compound is added to a 0.5 mL Eppendorf tube (0.67 μL per tube). The master mix is then added to each tube (18.3 μL per tube). Finally, 1 U of human topoisomerase (1 μL of 1 U/μL stock) is added to each tube for a final volume of 20 μL. The tubes are then incubated at 37° C. for 30 min. Reactions are stopped by the addition of 20 μL of 24:1 chloroform:isoamyl alcohol and 20 μL of stop dye (40% sucrose, 1 mM EDTA, 100 mM TrisHCl pH 7.5, 0.5 μg/mL bromophenol blue). Samples were run on 1% agarose gels containing 0.5 μg/mL ethidium bromide for 1 h at 110V or until the dye front was approximately halfway down the gel. Gels were imaged on a Molecular Imager Gel Doc XR+ (Biorad).

Series [3] has as its system VRE clinical isolate S557. In words: organism not typed. The series is classed as cell-based, E. faecium. Conditions: read-out: MIC.
Series [4] concerns MRSA clinical isolate SAU.3024. In words: MIC, microdilution broth. Conditions: Staphylococcus aureus. The series is classed as cell-based, S. aureus. The method, then: as §2
Series [5] relates to MRSA clinical isolate SAU.3026. In words: MIC, microdilution broth. The series is classed as cell-based, S. aureus. Conditions: Staphylococcus aureus, MRSA, read-out: MIC. The method, then: as §2
Series [6] deals with MRSA clinical isolate SAU.3021. The experiment in a line: MIC, microdilution broth. In kind it is cell-based, S. aureus. Conditions: Staphylococcus aureus, MRSA, read-out: MIC. The method, then: as §2
Series [7] has as its system MRSA clinical isolate SAU.447. In words: MIC, microdilution broth. The series is classed as cell-based, S. aureus. The note with it: Staphylococcus aureus. The method, then:
as §2

The nature of series [8]: In vivo toxicity assessment, 10 days. Conditions: 50 mg kg^−1 oral once-a-day 10 days; in words. Further details: species or system BALB/c mice. The method, then: Toxicity was assessed as previously described^56. Specifically, heparinized whole blood was collected for assessment of total white blood cells, neutrophils, lymphocytes, hematocrit, platelets, creatinine, blood urea, nitrogen, albumin, alanine aminotransferase, alkaline phosphatase, and total bilirubin. Mice were euthanized by overdosing with Ketamine/Xylazine, and heart, lung, kidney, liver, spleen, gastrointestinal tract and brain were collected for histopathology. Tissue samples were fixed 24 hours in 10% neutral buffered formalin, processed, and paraffin embedded, sectioned (5 μm thickness) and stained with hematoxylin and eosin. All slides were systematically evaluated by a single board certified veterinary anatomic pathologist (SL) for evidence of acute or chronic inflammation and toxicity. All lesions were characterized, recorded, and scored for severity (minimal=1, mild=2, moderate=3, and severe=4).

In series [9] the test system is VRE with the S83R mutation (GyrA). In words: microbe, parasite or virus in culture. Conditions: Enterococcus. The series is classed as cell-based.
In series [10] the test system is S. aureus ATCC 29213 derived strains. The experiment in a line: Resistant mutant generation (resistance frequency). The note with it: development of DNM resistance in high level CIP resistant strains.
Protocol: Agar plates (15 cm) were prepared containing MH broth and antibacterial compounds at concentrations detailed in the FIG. 10. 40 mL of an overnight bacterial culture was centrifuged at 3000×g for 10 min and resuspended in 0.4 mL of sterile PBS. Plates were inoculated with 100 μL of bacteria in PBS by spreading with beads. […] To determine the number of viable colonies spread onto each plate, dilutions of the overnight culture in sterile PBS were spread onto nonselective MH agar plates and plates were incubated overnight at 37° C. before counting colonies.
In series [11] the test system is MRSA clinical isolate SAU.846. In words: MIC, microdilution broth. The series is classed as cell-based, S. aureus. The note with it: Staphylococcus aureus, MRSA, read-out: MIC. The protocol: as §2

≈ marks a conversion by molar mass, not a printed value. Entries after “also recorded” stand apart in the source; their conditions may differ. Like-named read-outs stand apart in the source and are kept apart here.

T1 sequence (P11388 whole entry): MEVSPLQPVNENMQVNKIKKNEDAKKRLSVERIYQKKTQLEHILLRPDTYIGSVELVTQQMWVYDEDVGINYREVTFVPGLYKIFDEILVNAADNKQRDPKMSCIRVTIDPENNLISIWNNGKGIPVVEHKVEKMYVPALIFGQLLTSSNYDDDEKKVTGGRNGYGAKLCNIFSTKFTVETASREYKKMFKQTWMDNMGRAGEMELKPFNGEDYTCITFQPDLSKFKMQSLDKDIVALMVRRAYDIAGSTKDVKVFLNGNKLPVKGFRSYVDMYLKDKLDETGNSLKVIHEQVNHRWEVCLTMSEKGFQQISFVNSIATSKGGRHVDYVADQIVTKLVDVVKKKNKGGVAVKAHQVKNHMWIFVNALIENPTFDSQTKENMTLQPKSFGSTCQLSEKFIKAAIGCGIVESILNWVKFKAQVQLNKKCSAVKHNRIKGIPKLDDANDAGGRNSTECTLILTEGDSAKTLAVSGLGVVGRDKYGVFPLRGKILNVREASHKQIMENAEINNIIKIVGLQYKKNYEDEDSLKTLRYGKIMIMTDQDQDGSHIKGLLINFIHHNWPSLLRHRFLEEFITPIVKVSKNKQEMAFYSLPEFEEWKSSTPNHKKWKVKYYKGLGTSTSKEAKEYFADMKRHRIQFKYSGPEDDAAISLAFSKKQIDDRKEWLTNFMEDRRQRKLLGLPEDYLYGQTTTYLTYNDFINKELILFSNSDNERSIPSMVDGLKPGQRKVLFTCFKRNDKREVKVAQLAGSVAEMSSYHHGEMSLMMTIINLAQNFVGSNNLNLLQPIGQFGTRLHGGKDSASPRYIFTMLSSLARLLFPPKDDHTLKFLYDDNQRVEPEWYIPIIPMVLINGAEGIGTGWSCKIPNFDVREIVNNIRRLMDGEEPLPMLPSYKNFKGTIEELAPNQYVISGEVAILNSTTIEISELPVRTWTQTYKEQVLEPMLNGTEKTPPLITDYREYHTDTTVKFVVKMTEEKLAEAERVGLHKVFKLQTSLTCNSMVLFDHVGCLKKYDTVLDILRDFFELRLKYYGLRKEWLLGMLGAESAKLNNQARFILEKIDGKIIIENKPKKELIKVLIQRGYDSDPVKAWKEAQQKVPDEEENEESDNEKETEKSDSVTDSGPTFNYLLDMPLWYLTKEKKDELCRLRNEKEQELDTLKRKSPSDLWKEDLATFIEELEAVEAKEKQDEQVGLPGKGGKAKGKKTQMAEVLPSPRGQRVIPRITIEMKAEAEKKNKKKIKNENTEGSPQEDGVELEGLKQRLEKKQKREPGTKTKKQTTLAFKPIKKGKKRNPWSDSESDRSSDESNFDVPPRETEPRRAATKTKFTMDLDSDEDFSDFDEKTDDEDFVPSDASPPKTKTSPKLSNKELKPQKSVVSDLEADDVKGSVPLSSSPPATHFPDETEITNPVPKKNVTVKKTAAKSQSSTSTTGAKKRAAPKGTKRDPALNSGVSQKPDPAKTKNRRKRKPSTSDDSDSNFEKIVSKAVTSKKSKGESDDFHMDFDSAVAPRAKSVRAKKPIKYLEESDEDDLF

In the case of `CCn1c(=O)cc(C)c2cc3c(C)cc(=O)n4c3c(c21)OC4` [DNM-2], the MIC against A. baumannii KB304 was more than 24 µg/mL; with A. baumannii KB349, more than 24 µg/mL; in the series on E. coli MG1655, more than 24 µg/mL; against E. coli ATCC 25922 it was more than 24 µg/mL; in the series on Enterococcus ATCC 29212 (read-out: MIC) it was 8 µg/mL (≈ 27 µM); in series [1], 0.25 µg/mL (≈ 0.844 µM). The MIC amounted to 2 µg/mL (≈ 6.75 µM) in series [2]; 0.25 µg/mL (≈ 0.844 µM) in series [3]; 0.125 µg/mL (≈ 0.422 µM) in series [4]; 0.125 µg/mL (≈ 0.422 µM) in series [5]; 0.063 µg/mL (≈ 0.213 µM) in series [6]; 0.125 µg/mL (≈ 0.422 µM) in series [7]. The “Solubility in pH 7.4 PBS” value in the series “physchem” is 121 μM. Moreover, the “survival of mice infected with FQR MRSA (NRS3)” value in the series on FQR MRSA (NRS3) was “significant survival difference; also recorded: effective”. Besides, the “concentration inhibiting human topoisomerase II” value at human topoisomerase II is more than 30 µM. In addition, the “hematological and non-hematological toxicity” value in series [8] is “No clinically significant evidence for myelosuppression, renal injury, or hepatic toxicity”.
As for `Cc1cc(=O)n(C)c2c3c4c(cc12)c(C)cc(=O)n4CO3` [DNM, deoxynybomycin], the MIC in the series with A. baumannii KB304 was more than 4 µg/mL; against A. baumannii KB349 it was more than 4 µg/mL; in the series on E. coli ATCC 25922, more than 4 µg/mL; against Enterococcus ATCC 29212 it was more than 1 µg/mL; in the series with Enterococcus ATCC 29212 (read-out: MIC), more than 1 µg/mL; in series [9], not below 1 µg/mL. Further, the MIC was determined as 1 µg/mL (≈ 3.54 µM) in [2]; 0.125 µg/mL (≈ 0.443 µM) in series [5]; 0.031 µg/mL (≈ 0.11 µM) in [11]; 0.031 µg/mL (≈ 0.11 µM) in [6]; 0.063 µg/mL (≈ 0.223 µM) in series [7]. In addition, the “Solubility in pH 7.4 PBS” value in the series “physchem” amounted to 9 μM. Also, the resistance frequency in [10] was 1×10^−10 to 7×10^−10.

For the origin of these results see patent publication US9920069B2, “Compounds for treatment of fluoroquinolone-resistant bacteria” (The Board of Trustees of the University of Illinois, priority 2014, dated 2018).
